Measurements from article PMC9101642 (Molecules, 2022).
Read-outs that look alike come from different tables or passages of the source. Marks after values point to notes of the source that are not given here.

Columns and labels:
[1] = target: ERβ (Homo sapiens, UniProt Q92731); assay: Fluorescence polarization competition assay: antagonistic potency and relative binding affinity; conditions: log of % relative binding affinity, estradiol = 100%
[2] = tested on: MCF-7 cell lines; assay: MTT antiproliferative assay; type: cell-based, human; conditions: read-out: MCF-7 (IC50 nM)
[3] = tested on: MDA-MB-231 cell lines; assay: MTT antiproliferative assay; type: cell-based, human; conditions: read-out: MDA-MB-231 (IC50 nM)
[4] = tested on: Ishikawa endometrial adenocarcinoma cells; assay: Antiproliferative assay; type: cell-based; conditions: Homo sapiens, growth inhibition
[5] = tested on: progesterone receptor (PR); assay: ERα functional antagonism cell assay (PR as biomarker) in MCF-7; type: cell-based; conditions: Homo sapiens, MCF7; progesterone receptor as biomarker for ERα antagonism in MCF-7
[6] = tested on: MCF-7 cells; assay: Cell cycle distribution by flow cytometry; type: cell-based, human; conditions: 24 h
[7] = tested on: MNU-induced breast cancer; assay: In vivo anticancer screening, MNU-induced mammary tumorigenesis; set-up: species or system female Wistar rats
[8] = Plasma protein binding determination; type: in vitro ADME, rat; conditions: rat, plasma
Description: Rats were housed at 3 per cage and
The breast cancer was induced after the MNU (Sigma Aldrich CAS No. 684-93-5) administration. An aqueous solution at a concentration of 10 mg/ml was made by wetting the NMU powder with 3% acetic acid and then dissolving it in 0.9% NaCl solution; a fresh solution was prepared for each injection. Rats were given intraperitoneal (i.p.) 50 mg/kg of MNU on the 50th day of age. Animals were divided into different groups with six animals in each group. Group I (intact control) received 0.9% NaCl solution.
Groups II-IV and V-VII were introduced with MNU. Two weeks after MNU treatment, animals were treated orally with synthesized compounds and control substances (5 and 50 mg/kg, for groups II-IV and V-VII, respectively) by gavage once per day for six weeks. Animals in the intact control group and untreated MNU group were given vehicle (Tween 80) according to the experimental protocol. […]
Upon finishing the treatment with synthesized compounds, animals were sacrificed, and plasma, serum, and liver samples were collected. […]
Rat plasma containing either 5 or 50 mg/kg bwt of the tested compounds was incubated at 37°C upper reservoir of the washed Centri-free YM-30 ultrafiltration units (Millipore, Bedford, MA) and then centrifuged for 20 min at 2,000 g. Aliquots of the ultrafiltrates and unfiltered incubation mixtures were analyzed for the total protein concentration by the bicinchoninic acid assay for protein concentration (BCA assay; Pierce, Rockford, IL).

[9] = Serum biochemical markers after treatment of MNU-induced rats; type: in vivo, Wistar rats; conditions: for ALP (A/L) / ALT (A/L) / AST (U/L) / γ-GT (U/L): serum; for TBC: total bilirubin content
Outline: (§1)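 Mammary tumours induced in rats by MNU 50 mg/kg i.p. at day 50; after two weeks, compounds given orally at 5 or 50 mg/kg once daily for six weeks. Serum AST, ALT (340 nm), ALP (405 nm) and bilirubin measured; liver homogenate GSH, CAT, MDA by colorimetry; plasma binding by ultrafiltration at 37°C with BCA protein read-out.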

[10] = Liver oxidative stress markers after treatment of MNU-induced rats; type: in vivo, Wistar rats; conditions: rat, in vivo
Outline: as §1

[11] = tested on: MNU-induced breast cancer tissue; assay: Histopathology of breast sections; type: in vivo, Wistar rats
Outline: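 Rats with MNU-induced breast cancer were given selected leads at two concentrations. Breast tissue was examined histopathologically for lobuloalveolar units and epithelial changes, with slides photographed at 200x.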

[12] = both, Wistar, rat, in vivo, po
[13] = rat, in vivo
[14] = physchem; conditions: pH 7.4
[15] = dose 50 mg/kg (compounds per os after MNU; MNU alone i.p.)

Chain of ERβ (Q92731 whole entry): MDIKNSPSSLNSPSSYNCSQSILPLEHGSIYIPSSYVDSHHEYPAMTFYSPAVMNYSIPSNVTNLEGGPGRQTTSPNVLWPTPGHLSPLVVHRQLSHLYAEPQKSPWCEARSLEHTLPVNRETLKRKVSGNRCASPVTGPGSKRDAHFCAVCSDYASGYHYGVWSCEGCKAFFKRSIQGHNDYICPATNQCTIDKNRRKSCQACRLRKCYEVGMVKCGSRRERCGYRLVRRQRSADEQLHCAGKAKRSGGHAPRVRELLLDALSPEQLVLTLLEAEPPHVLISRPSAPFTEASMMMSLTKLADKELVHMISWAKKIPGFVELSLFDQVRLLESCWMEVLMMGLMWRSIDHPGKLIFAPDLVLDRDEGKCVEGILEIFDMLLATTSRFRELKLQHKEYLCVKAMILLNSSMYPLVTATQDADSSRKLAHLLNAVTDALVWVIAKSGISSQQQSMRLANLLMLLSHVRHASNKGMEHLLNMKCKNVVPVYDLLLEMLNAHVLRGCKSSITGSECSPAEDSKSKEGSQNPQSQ

O=C(c1ccc(OCCN2CCCCC2)cc1)c1c(-c2ccc(O)cc2)sc2cc(O)ccc12 [Ral., Raloxifene, reference compound]
logRBA ERβ [1]: 1.42 ^† | IC50 [2]: 0.9 ± 0.19 nM | IC50 ([3]; growth inhibition, 48 h): 93.41 ± 0.48 nM | IC50 ([3]; references in Table S17): 93.12 ± 0.24 nM | IC50 [4]: 0.97 ± 0.35 nM | IC50 [5]: > 100 nM | Cell Cycle (%) G0/G1 ([6]; 0.1 nM): 59.14 ± 0.54 *^,†,‡ % | Cell Cycle (%) G2/M ([6]; 0.1 nM): 25.03 ± 0.35 *^,†,‡ % | Cell Cycle (%) S ([6]; 0.1 nM): 15.83 ± 0.53 *^,†,‡ % | Cell Cycle (%) G0/G1 ([6]; 1 nM): 66.52 ± 0.56 *^,†,‡ % | Cell Cycle (%) G2/M ([6]; 1 nM): 17.11 ± 0.46 *^,†,‡ % | Cell Cycle (%) S ([6]; 1 nM): 16.37 ± 0.46 *^,†,‡ % | Tumor Burden (week) ([7]; dose 5 mg/kg per os after MNU): 3.11 ± 0.47 *^,†,‡ week | Tumor Latency (week) ([7]; dose 5 mg/kg per os after MNU): 8 * week | Tumor Volume (mm^3) ([7]; dose 5 mg/kg per os after MNU): 1.67 ± 0.31 *^,†,‡ mm^3 | Tumor Burden (week) [7, 15]: 2.91 ± 0.22 *^,†,§ week | Tumor Latency (week) [7, 15]: 13 *^,† week | Tumor Volume (mm^3) [7, 15]: 1.41 ± 0.54 *^,†§ mm^3 | fraction unbound at 5 mg/kg bwt [8]: 0.0185 | fraction unbound at 50 mg/kg bwt [8]: 0.019 | ALP (A/L) ([9]; dose 5 mg/kg): 99.54±0.32 A/L | ALT (A/L) ([9]; dose 5 mg/kg): 50.14±0.35 A/L | AST (U/L) ([9]; dose 5 mg/kg): 53.57±0.43 U/L | γ-GT (U/L) ([9]; dose 5 mg/kg): 11.43 U/L | ALP (A/L) ([9]; dose 50 mg/kg): 106.43±0.54 A/L | ALT (A/L) ([9]; dose 50 mg/kg): 52.46±0.42 A/L | AST (U/L) ([9]; dose 50 mg/kg): 58.41±0.32 U/L | γ-GT (U/L) ([9]; dose 50 mg/kg): 12.35±0.31 U/L | TBC ([9]; dose 5 mg/kg): 18.53 | TBC ([9]; dose 50 mg/kg): 22.46 | CAT ([10]; 5 mg/kg): 10.73±0.32 | GSH ([10]; 5 mg/kg): 6.65 mg/g | SOD (U/mg) ([10]; 5 mg/kg): 6.89±0.56 U/mg | TBARS ([10]; 5 mg/kg): 2.31 ± 0.56 nmol/mg | TP ([10]; 5 mg/kg): 42.67 g/L | CAT ([10]; 50 mg/kg): 14.43±0.56 | GSH ([10]; 50 mg/kg): 5.54 ± 0.36 mg/g | SOD (U/mg) ([10]; 50 mg/kg): 8.46±0.23 U/mg | TBARS ([10]; 50 mg/kg): 2.63 ± 0.21 nmol/mg | TP ([10]; 50 mg/kg): 44.43 g/L | breast section histopathology ([11]; 5 mg/kg of bwt): differentiated extralobular ducts (ED) | breast section histopathology ([11]; 50 mg/kg of bwt): differentiated extralobular ducts (ED) | BIO ([12]; 5 mg/kg): 93 ^‡ | BIO ([12]; 50 mg/kg): 96 | WL after MFD (day 1, mg) [13]: 310.54 ± 0.45 mg | WL after MFD (day 5, mg) [13]: 300.54 ± 0.48 mg | logD at 30 min [14]: 2.39
